In this assay the test system is HCC 2998. The experiment in a line: NCI-60 cell line screen, 48 h.

These results are taken from ChEMBL document CHEMBL1201862, “PubChem BioAssay data set” (2004).

Each structure is given as a SMILES string.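 All cell lines were grown in 96-well plates and treated with compound for 48 hours. GI50: concentration for 50% inhibition of growth.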 Active and inactive are the calls of the source. No stated cut-off is given here; in the data, active = GI50 up to about 1.1 µM and inactive = higher.

`c1ccc(-c2ccnc3c2ccc2c(-c4ccccc4)ccnc23)cc1`: the GI50 was 3.53 µM (inactive).
